Source: PubChem BioAssay (NCI)
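Grown in 96-well plates, cells were treated for 48 hours with each compound at five concentrations. Insufficient inhibition: endpoint recorded as highest concentration tested. GI50 marks 50% less growth. TGI denotes the concentration required for complete inhibition of growth.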

Tests used:
Experiment in all cases: NCI tumour cell line growth inhibition, 48 h
K-562 leukemia = system: K-562 leukemia
M14 melanoma = system: M14 melanoma
SW-620 colon = system: SW-620 colon
PC-3 prostate = system: PC-3 prostate
HCT-15 colon = system: HCT-15 colon
LOX IMVI melanoma = system: LOX IMVI melanoma
NCI/ADR-RES ovarian = system: NCI/ADR-RES ovarian
A498 renal = system: A498 renal
SNB-19 CNS = system: SNB-19 CNS
SK-OV-3 ovarian = system: SK-OV-3 ovarian
SF-268 CNS = system: SF-268 CNS
786-0 renal = system: 786-0 renal
KM12 colon = system: KM12 colon
SN12C renal = system: SN12C renal
DU-145 prostate = system: DU-145 prostate
EKVX NSCLC = system: EKVX NSCLC
NCI-H226 lung = system: NCI-H226 lung
OVCAR-3 ovarian = system: OVCAR-3 ovarian
MCF7 breast = system: MCF7 breast
IGROV1 ovarian = system: IGROV1 ovarian
SF-295 CNS = system: SF-295 CNS
SK-MEL-2 melanoma = system: SK-MEL-2 melanoma
ACHN renal = system: ACHN renal
MDA-MB-231 breast = system: MDA-MB-231 breast
MDA-N = system: MDA-N
NCI-H460 lung = system: NCI-H460 lung
MOLT-4 leukemia = system: MOLT-4 leukemia
SF-539 CNS = system: SF-539 CNS
A549 NSCLC = system: A549 NSCLC
MDA-MB-435 = system: MDA-MB-435
SK-MEL-28 melanoma = system: SK-MEL-28 melanoma
SR leukemia = system: SR leukemia
HCT-116 colon = system: HCT-116 colon
TK-10 renal = system: TK-10 renal
UACC-257 melanoma = system: UACC-257 melanoma
UACC-62 melanoma = system: UACC-62 melanoma
UO-31 renal = system: UO-31 renal
U251 CNS = system: U251 CNS
HOP-92 NSCLC = system: HOP-92 NSCLC
OVCAR-5 ovarian = system: OVCAR-5 ovarian
HS 578T breast = system: HS 578T breast
T-47D breast = system: T-47D breast
HL-60(TB) leukemia = system: HL-60(TB) leukemia
RPMI-8226 leukemia = system: RPMI-8226 leukemia
NCI-H522 lung = system: NCI-H522 lung
OVCAR-8 ovarian = system: OVCAR-8 ovarian
HT29 colon = system: HT29 colon
SNB-75 CNS = system: SNB-75 CNS
HOP-62 NSCLC = system: HOP-62 NSCLC
COLO 205 colon = system: COLO 205 colon
CAKI-1 renal = system: CAKI-1 renal
MALME-3M melanoma = system: MALME-3M melanoma
NCI-H23 lung = system: NCI-H23 lung
BT-549 breast = system: BT-549 breast
HCC-2998 colon = system: HCC-2998 colon
SK-MEL-5 melanoma = system: SK-MEL-5 melanoma
CCRF-CEM leukemia = system: CCRF-CEM leukemia
RXF 393 renal = system: RXF 393 renal
OVCAR-4 ovarian = system: OVCAR-4 ovarian

SMILES: COC(=O)C1CCC(=O)N1C(c1cc(OC)c(OC)c(OC)c1)c1cccc2ccccc12 (configuration not stated)
- TGI (K-562 leukemia): > 100 µM
- TGI (M14 melanoma): > 100 µM
- TGI (SW-620 colon): > 100 µM
- TGI (PC-3 prostate): > 100 µM
- TGI (HCT-15 colon): > 100 µM
- TGI (LOX IMVI melanoma): > 100 µM
- TGI (NCI/ADR-RES ovarian): > 100 µM
- TGI (A498 renal): > 100 µM
- TGI (SNB-19 CNS): > 100 µM
- TGI (SK-OV-3 ovarian): > 100 µM
- TGI (SF-268 CNS): > 100 µM
- TGI (786-0 renal): > 100 µM
- TGI (KM12 colon): > 100 µM
- TGI (SN12C renal): > 100 µM
- TGI (DU-145 prostate): > 100 µM
- TGI (EKVX NSCLC): > 100 µM
- TGI (NCI-H226 lung): > 100 µM
- TGI (OVCAR-3 ovarian): > 100 µM
- TGI (MCF7 breast): > 100 µM
- TGI (IGROV1 ovarian): > 100 µM
- TGI (SF-295 CNS): > 100 µM
- TGI (SK-MEL-2 melanoma): > 100 µM
- TGI (ACHN renal): > 100 µM
- TGI (MDA-MB-231 breast): > 100 µM
- TGI (MDA-N): > 100 µM
- TGI (NCI-H460 lung): > 100 µM
- TGI (MOLT-4 leukemia): > 100 µM
- TGI (SF-539 CNS): > 100 µM
- TGI (A549 NSCLC): > 100 µM
- TGI (MDA-MB-435): > 100 µM
- TGI (SK-MEL-28 melanoma): > 100 µM
- TGI (SR leukemia): > 100 µM
- TGI (HCT-116 colon): > 100 µM
- TGI (TK-10 renal): > 100 µM
- TGI (UACC-257 melanoma): > 100 µM
- TGI (UACC-62 melanoma): > 100 µM
- TGI (UO-31 renal): > 100 µM
- TGI (U251 CNS): > 100 µM
- TGI (HOP-92 NSCLC): > 100 µM
- TGI (OVCAR-5 ovarian): > 100 µM
- TGI (HS 578T breast): > 100 µM
- TGI (T-47D breast): > 100 µM
- TGI (HL-60(TB) leukemia): > 100 µM
- TGI (RPMI-8226 leukemia): > 100 µM
- TGI (NCI-H522 lung): > 100 µM
- TGI (OVCAR-8 ovarian): > 100 µM
- TGI (HT29 colon): > 100 µM
- TGI (SNB-75 CNS): > 100 µM
- TGI (HOP-62 NSCLC): > 100 µM

SMILES: N#C/C(=N\Nc1ccccc1)C(=O)Nc1cc(-c2ccccc2)nn1-c1ccccc1
- GI50 (K-562 leukemia): 2.43 µM
- TGI (K-562 leukemia): > 100 µM
- GI50 (M14 melanoma): 2.68 µM
- TGI (M14 melanoma): > 100 µM
- GI50 (SW-620 colon): 3.15 µM
- TGI (SW-620 colon): > 100 µM
- GI50 (COLO 205 colon): 2.17 µM
- TGI (COLO 205 colon): 4.77 µM
- GI50 (PC-3 prostate): 2.13 µM
- TGI (PC-3 prostate): 9.48 µM
- GI50 (CAKI-1 renal): 2.88 µM
- TGI (CAKI-1 renal): > 100 µM
- GI50 (MALME-3M melanoma): 2.84 µM
- TGI (MALME-3M melanoma): > 100 µM
- GI50 (HCT-15 colon): 2.98 µM
- TGI (HCT-15 colon): > 100 µM
- GI50 (NCI/ADR-RES ovarian): 2.83 µM
- TGI (NCI/ADR-RES ovarian): 30.2 µM
- GI50 (SNB-19 CNS): 3.6 µM
- TGI (SNB-19 CNS): > 100 µM
- GI50 (NCI-H23 lung): 2.73 µM
- TGI (NCI-H23 lung): 60.5 µM
- GI50 (BT-549 breast): 2.2 µM
- TGI (BT-549 breast): 6.47 µM
- GI50 (SF-268 CNS): 3.85 µM
- TGI (SF-268 CNS): > 100 µM
- GI50 (786-0 renal): 3.04 µM
- TGI (786-0 renal): 16.3 µM
- GI50 (HCC-2998 colon): 3.81 µM
- TGI (HCC-2998 colon): > 100 µM
- GI50 (KM12 colon): 2.97 µM
- TGI (KM12 colon): > 100 µM
- GI50 (SK-MEL-5 melanoma): 1.54 µM
- TGI (SK-MEL-5 melanoma): 4.86 µM
- GI50 (SN12C renal): 2.74 µM
- TGI (SN12C renal): > 100 µM
- GI50 (DU-145 prostate): 4.08 µM
- TGI (DU-145 prostate): > 100 µM
- GI50 (EKVX NSCLC): 2.93 µM
- TGI (EKVX NSCLC): > 100 µM
- GI50 (NCI-H226 lung): 2.8 µM
- TGI (NCI-H226 lung): > 100 µM
- GI50 (OVCAR-3 ovarian): 3.24 µM
- TGI (OVCAR-3 ovarian): 33.2 µM
- GI50 (MCF7 breast): 2.46 µM
- TGI (MCF7 breast): > 100 µM
- GI50 (IGROV1 ovarian): 4.49 µM
- TGI (IGROV1 ovarian): > 100 µM
- GI50 (SF-295 CNS): 3.14 µM
- TGI (SF-295 CNS): > 100 µM
- GI50 (SK-MEL-2 melanoma): 2.19 µM
- TGI (SK-MEL-2 melanoma): 9.94 µM
- GI50 (ACHN renal): 2.98 µM
- TGI (ACHN renal): > 100 µM
- GI50 (MDA-MB-231 breast): 3.34 µM
- TGI (MDA-MB-231 breast): > 100 µM
- GI50 (NCI-H460 lung): 2.72 µM
- TGI (NCI-H460 lung): 22.1 µM
- GI50 (MOLT-4 leukemia): 3.75 µM
- TGI (MOLT-4 leukemia): > 100 µM
- GI50 (CCRF-CEM leukemia): 2.5 µM
- TGI (CCRF-CEM leukemia): > 100 µM
- GI50 (SF-539 CNS): 3.3 µM
- TGI (SF-539 CNS): 19.7 µM
- GI50 (A549 NSCLC): 2.95 µM
- TGI (A549 NSCLC): > 100 µM
- GI50 (MDA-MB-435): 3.05 µM
- TGI (MDA-MB-435): > 100 µM
- GI50 (SK-MEL-28 melanoma): 3.78 µM
- TGI (SK-MEL-28 melanoma): > 100 µM
- GI50 (SR leukemia): 5.19 µM
- TGI (SR leukemia): > 100 µM
- GI50 (HCT-116 colon): 2.14 µM
- TGI (HCT-116 colon): > 100 µM
- GI50 (TK-10 renal): 4.27 µM
- TGI (TK-10 renal): > 100 µM
- GI50 (UACC-257 melanoma): 2.47 µM
- TGI (UACC-257 melanoma): 9.93 µM
- GI50 (UACC-62 melanoma): 1.65 µM
- TGI (UACC-62 melanoma): > 100 µM
- GI50 (UO-31 renal): 2.58 µM
- TGI (UO-31 renal): > 100 µM
- GI50 (U251 CNS): 3.14 µM
- TGI (U251 CNS): 16 µM
- GI50 (RXF 393 renal): 2.26 µM
- TGI (RXF 393 renal): 7.69 µM
- GI50 (HOP-92 NSCLC): 0.181 µM
- TGI (HOP-92 NSCLC): 2.58 µM
- GI50 (OVCAR-5 ovarian): 3.39 µM
- TGI (OVCAR-5 ovarian): > 100 µM
- GI50 (HS 578T breast): 3.5 µM
- TGI (HS 578T breast): > 100 µM
- GI50 (T-47D breast): 2.03 µM
- TGI (T-47D breast): 8.11 µM
- GI50 (HL-60(TB) leukemia): 2.94 µM
- TGI (HL-60(TB) leukemia): 22.1 µM
- GI50 (RPMI-8226 leukemia): 1.8 µM
- TGI (RPMI-8226 leukemia): 39.2 µM
- GI50 (NCI-H522 lung): 2.06 µM
- TGI (NCI-H522 lung): 12.6 µM
- GI50 (OVCAR-8 ovarian): 3.25 µM
- TGI (OVCAR-8 ovarian): > 100 µM
- GI50 (OVCAR-4 ovarian): 2.01 µM
- TGI (OVCAR-4 ovarian): 8.95 µM
- GI50 (HT29 colon): 3.2 µM
- TGI (HT29 colon): 17.3 µM
- GI50 (HOP-62 NSCLC): 2.84 µM
- TGI (HOP-62 NSCLC): 49.9 µM
